These results are taken from paper PMC12363342, “Investigating the N-terminal linker histone H1 subtypes as substrates for JmjC lysine demethylases” (RSC Chemical Biology, 2025).

Square brackets hold non-standard residues; d marks the D form. Ends that are not written are not given here. Lys(Me3) = C[N+](C)(C)CCCC[C@H](N)C(=O)O Bounds are passed on as bounds.

One experiment concerns the target T1, KDM4D (Homo sapiens, UniProt Q6B0I6).
T1 construct: KDM4AM1-L359,[38]; KDM4DM1-L359,[39]; KDM4EM1-R336,[30]; His6 (N); made in house; host or cells: Escherichia coli
T1 sequence (Q6B0I6 1-359): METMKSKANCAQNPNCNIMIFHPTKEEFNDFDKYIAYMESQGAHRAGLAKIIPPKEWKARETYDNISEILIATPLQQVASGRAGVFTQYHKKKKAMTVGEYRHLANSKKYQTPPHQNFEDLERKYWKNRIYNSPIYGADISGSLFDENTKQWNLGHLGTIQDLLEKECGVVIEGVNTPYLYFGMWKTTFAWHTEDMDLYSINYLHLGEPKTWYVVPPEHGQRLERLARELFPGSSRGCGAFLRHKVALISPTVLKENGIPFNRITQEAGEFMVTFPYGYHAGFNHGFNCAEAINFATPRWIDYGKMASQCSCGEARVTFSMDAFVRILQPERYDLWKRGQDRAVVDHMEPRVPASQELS
The experiment can be described thus: LC-MS demethylation activity assay, KDM4D. It counts as biochemical. As to conditions: room temperature; for substrate conversion (demethylation) by KDM4D / di-methylated product formed by KDM4D / mono-methylated product formed by KDM4D: 2 μM KDM4D, 10 μM peptide; for substrate conversion (demethylation) by KDM4D / KDM4D demethylation activity, T: 10 μM FAS, 100 μM LAA, 20 μM 2OG; for substrate conversion (demethylation) by KDM4D: HEPES pH 7.5, 2 h; for di-methylated product formed by KDM4D / mono-methylated product formed by KDM4D: standard conditions, 2 h; for KDM4D demethylation activity, T: 2 μM KDM, 10 μM H1/H3 peptide, 50 mM HEPES pH 7.5, 2 h, T (tri-) initial methylation state. The method, boiled down:
(§1)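 H1 isoform peptides (10 μM) were incubated 2 h at room temperature with 2 μM recombinant N-terminally His6-tagged catalytic domains in 50 mM HEPES pH 7.5 containing FAS (10 μM), ascorbate (100 μM) and 2OG (20 μM). Reactions were quenched with formic acid (1% final), and demethylation was analysed by LC-MS (Q-TOF).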

Another experiment has as its system KDM3A. The experiment can be described thus: LC-MS demethylation activity assay, KDM3A. Type of experiment: biochemical, human. As to conditions: 2 μM KDM, 10 μM H1/H3 peptide, 10 μM FAS, 100 μM LAA, 20 μM 2OG, 50 mM HEPES pH 7.5, 2 h, room temperature, T (tri-) initial methylation state. The method, boiled down: as §1
The next experiment has as its system KDM3C. The experiment can be described thus: LC-MS demethylation activity assay, KDM3C. Type of experiment: biochemical, human. Particulars: 2 μM KDM, 10 μM H1/H3 peptide, 10 μM FAS, 100 μM LAA, 20 μM 2OG, 50 mM HEPES pH 7.5, 2 h, room temperature, T (tri-) initial methylation state. A digest of the protocol:
as §1

The subject of the next experiment is KDM4A. The experiment can be described thus: LC-MS demethylation activity assay, KDM4A. It counts as biochemical, human. Particulars: 10 μM FAS, 100 μM LAA, 20 μM 2OG, room temperature; for substrate conversion (demethylation) by KDM4A: 2 μM KDM4A, 10 μM peptide, HEPES pH 7.5, 2 h; for KDM4A demethylation activity, T: 2 μM KDM, 10 μM H1/H3 peptide, 50 mM HEPES pH 7.5, 2 h, T (tri-) initial methylation state. A digest of the protocol:
as §1

Regarding “KKKAAK[Lys(Me3)]AGGTPRKA [Peptide H1.2K26me3, 15-mer linker histone H1.2 residues 20-34 peptide, tri-methylated K26]”, at KDM4D, the “substrate conversion (demethylation) by KDM4D” value (“substrate conversion … by KDM4D” below) was approximately 70%; the “di-methylated product formed by KDM4D” value is approximately 30%; the “mono-methylated product formed by KDM4D” value is approximately 40%; the “KDM4D demethylation activity, T” value was “● [green] (green dots indicate good demethylation (>50% conversion))”. For the same substance, the “KDM3A demethylation activity, T” value with KDM3A was “● [red]”. Besides, the “KDM3C demethylation activity, T” value in the experiment with KDM3C is “● [red]”. Also, in the experiment on KDM4A, the “substrate conversion (demethylation) by KDM4A” value (shortened to “substrate conversion … by KDM4A”) was approximately 51% and the “KDM4A demethylation activity, T” value is “● [yellow] (yellow dots indicate moderate demethylation (<50% conversion))”.
Take “KKKAA[Lys(Me3)]KAGGTPRKA [Peptide H1.2K25me3, 15-mer linker histone H1.2 residues 20-34 peptide, tri-methylated K25]”: at KDM4D, the “KDM4D demethylation activity, T” value was “● [red]”. Moreover, in the experiment on KDM3A, the “KDM3A demethylation activity, T” value was “● [red]”. For the same substance, the “KDM3C demethylation activity, T” value with KDM3C was “● [red]”. In the experiment on KDM4A, the “substrate conversion … by KDM4A” value is approximately 45% and the “KDM4A demethylation activity, T” value is “● [green] (green dots indicate good demethylation (>50% conversion))”.
Consider “KKKAR[Lys(Me3)]SAGAAKRKA [Peptide H1.4K25me3, 15-mer linker histone H1.4 residues 20-34 peptide, tri-methylated K25]”, for which, at KDM4D, the “substrate conversion … by KDM4D” value was approximately 92%; the “di-methylated product formed by KDM4D” value was approximately 30%; the “mono-methylated product formed by KDM4D” value is on record as approximately 62%; the “KDM4D demethylation activity, T” value was “● [green] (green dots indicate good demethylation (>50% conversion))”. Moreover, the “KDM3A demethylation activity, T” value in the experiment on KDM3A is “● [red]”. Besides, the “KDM3C demethylation activity, T” value with KDM3C was “● [red]”. Besides, in the experiment on KDM4A, the “substrate conversion … by KDM4A” value was approximately 87% and the “KDM4A demethylation activity, T” value is “● [green] (green dots indicate good demethylation (>50% conversion))”.
As for “KKKATK[Lys(Me3)]AAGAGAAK [Peptide H1.5K26me3, 15-mer linker histone H1.5 residues 20-34 peptide, tri-methylated K26]”, at KDM4D, the “KDM4D demethylation activity, T” value is “● [green] (green dots indicate good demethylation (>50% conversion))”. For the same substance, the “KDM3A demethylation activity, T” value with KDM3A was “● [red]”. Besides, the “KDM3C demethylation activity, T” value with KDM3C is “● [red]”. Besides, in the experiment on KDM4A, the “substrate conversion … by KDM4A” value is listed as less than 10% and the “KDM4A demethylation activity, T” value is “● [green] (green dots indicate good demethylation (>50% conversion))”.
For “KKKA[Lys(Me3)]KAGATAGKRK [Peptide H1.3K24me3, 15-mer linker histone H1.3 residues 20-34 peptide, tri-methylated K24]”, at KDM4D, the “substrate conversion … by KDM4D” value is approximately 68%; the “di-methylated product formed by KDM4D” value is given as approximately 30%; the “mono-methylated product formed by KDM4D” value is on record as approximately 40%; the “KDM4D demethylation activity, T” value was “● [green] (green dots indicate good demethylation (>50% conversion))”. In the experiment with KDM3A, the “KDM3A demethylation activity, T” value was “● [red]”. In addition, in the experiment on KDM3C, the “KDM3C demethylation activity, T” value was “● [red]”. In the experiment on KDM4A, the “substrate conversion … by KDM4A” value is listed as approximately 36% and the “KDM4A demethylation activity, T” value is “● [green] (green dots indicate good demethylation (>50% conversion))”.
